Common to all, as to type: in vivo, human
Data set [1] relates to seborrheic dermatitis. In words: Case report, Patient A: seborrheic dermatitis under doxycycline. An excerpt: (§1) Patient A is a person diagnosed with PD approximately one and a half years earlier and treated with levodopa. […] The patient also experienced intermittent irritable bowel disorder symptoms.
Data set [2] in a line: Case report, Patient A: tolerability of doxycycline. Particulars: after two additional months on doxycycline.
Description: as §1

Data set [3] has as its system PD tremor. In words: Case report, Patient A: PD tremor under doxycycline added to levodopa. Conditions: prior to initiation of doxycycline.
Description: as §1

A value given as a limit tells only on which side of the number the result lay.

Turning to `C[C@H]1c2cccc(O)c2C(=O)C2=C(O)[C@]3(O)C(=O)C(C(N)=O)=C(O)[C@@H](N(C)C)[C@@H]3[C@@H](O)[C@@H]21` [doxycycline, Doxycycline], the “time to resolution of seborrheic dermatitis” value in data set [1] (PD patient on levodopa, doxycycline 100 mg tablet once a day, first course) is recorded as at most 3 weeks. Further, in data set [1] (doxycycline discontinued after approximately 8 weeks (first de-challenge)), the “time to recurrence of seborrheic dermatitis after discontinuation” value was at most 2 weeks. Besides, the “adverse event leading to stop of treatment” value in data set [2] is given as “nausea”.
Take `N[C@@H](Cc1ccc(O)c(O)c1)C(=O)O` [levodopa, Levodopa]: the “interval between required levodopa dose increases (worsening PD, most notably tremor)” value in data set [3] is recorded as around 3 months.

Values taken from patent US20260158046A1, “TREATMENT OF NEURODEGENERATIVE DISORDERS WITH DOXYCYCLINE ALONE OR IN COMBINATION WITH LEVODOPA” (Biohaven Therapeutics Ltd., priority 2023, published 2026).
